Test systems include SK-OV-3 ovarian; MDA-N; SK-MEL-28 melanoma; HL-60(TB) leukemia; SW-620 colon; A549 NSCLC; SK-MEL-2 melanoma; HCT-15 colon; CCRF-CEM leukemia; RPMI-8226 leukemia.
Holding throughout (assay): growth of human tumour cells (NCI), 48 h

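Dose response: 5 concentrations. Exposure: 48 h. Format: 96-well plates. Endpoint: linear interpolation; highest concentration if not reached. GI50: concentration for 50% inhibition of growth. At the TGI there is no net growth.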 Bounds are passed on as bounds.

As for `NC12CC3CC4C1CC1CC2C(C3)C4(N)C1`, the TGI with SK-OV-3 ovarian, in the experiment with MDA-N, in the experiment with SK-MEL-28 melanoma, with HL-60(TB) leukemia, in the experiment with SW-620 colon and in the experiment with A549 NSCLC was more than 100 µM throughout. Moreover, the TGI in the experiment on SK-MEL-2 melanoma, with HCT-15 colon and in the experiment with CCRF-CEM leukemia was more than 100 µM throughout.
On to `CC(NC(=O)C(N)CC(=O)O)NC(=O)N1CCOCC1` (stereo not drawn), for which the TGI in the experiment on SK-OV-3 ovarian, with RPMI-8226 leukemia, in the experiment on MDA-N, in the experiment on SK-MEL-28 melanoma, in the experiment on SW-620 colon and with A549 NSCLC was more than 100 µM each time. Also, the TGI in the experiment with SK-MEL-2 melanoma, with HCT-15 colon and with CCRF-CEM leukemia was more than 100 µM in each case.
Take `O=C1/C(=C/c2cccs2)NC(=S)N1CN1CCOCC1`: the TGI in the experiment with SK-OV-3 ovarian, in the experiment with RPMI-8226 leukemia, with MDA-N, in the experiment with SK-MEL-28 melanoma, in the experiment on SW-620 colon and in the experiment with A549 NSCLC was more than 100 µM in each case. Further, the TGI in the experiment on SK-MEL-2 melanoma, with HCT-15 colon and with CCRF-CEM leukemia was more than 100 µM throughout.
As to `Fc1cc(-c2ncc(Cl)cc2Cl)c2cccccc1-2`, the TGI in the experiment on SK-OV-3 ovarian, in the experiment on MDA-N, in the experiment on A549 NSCLC and in the experiment on HCT-15 colon was more than 100 µM each time.
Take `COc1cc2c(cc1OC)C(Cc1ccccc1CCCl)=NCC2`: the TGI in the experiment with SK-OV-3 ovarian is more than 100 µM; in the experiment on RPMI-8226 leukemia, 98.1 µM; in the experiment with SK-MEL-28 melanoma, more than 100 µM; in the experiment on HL-60(TB) leukemia, 97.2 µM; in the experiment with SW-620 colon it was more than 100 µM; with A549 NSCLC, more than 100 µM. For the same molecule, the TGI in the experiment on SK-MEL-2 melanoma, in the experiment on HCT-15 colon and in the experiment on CCRF-CEM leukemia was more than 100 µM each time.
For `C=Cc1cc2c(cc1O)CC[C@@H]1[C@@H]2CC[C@]2(C)[C@@H](O)CC[C@@H]12`, the TGI with SK-OV-3 ovarian came out at 28.3 µM; in the experiment with MDA-N, 7.76 µM; in the experiment with SK-MEL-28 melanoma, 16.7 µM; with HL-60(TB) leukemia, 7.27 µM; with SW-620 colon, 14.2 µM; in the experiment on A549 NSCLC it was 19.9 µM. The TGI was 21.1 µM with SK-MEL-2 melanoma, 28.8 µM in the experiment on HCT-15 colon and 17.2 µM in the experiment on CCRF-CEM leukemia.
Consider `Oc1ccc2ccccc2c1N=Nc1ccccn1`, for which the GI50 in the experiment with SK-OV-3 ovarian is 1.14 µM; in the experiment on RPMI-8226 leukemia it was 1.98 µM; in the experiment with SK-MEL-28 melanoma it was 2.8 µM; in the experiment on HL-60(TB) leukemia it was 0.469 µM; in the experiment on SW-620 colon, 0.652 µM; in the experiment with A549 NSCLC, 2.95 µM. Moreover, the results for the GI50 with SK-MEL-2 melanoma, in the experiment on HCT-15 colon and with CCRF-CEM leukemia were 3.08 µM, 0.497 µM and 0.312 µM, respectively. Moreover, the TGI was more than 100 µM in the experiment with SK-OV-3 ovarian; more than 100 µM in the experiment on RPMI-8226 leukemia; more than 100 µM with SK-MEL-28 melanoma; 3.23 µM in the experiment with HL-60(TB) leukemia; more than 100 µM in the experiment with SW-620 colon; more than 59.3 µM in the experiment on A549 NSCLC. In addition, the TGI with SK-MEL-2 melanoma is more than 82.5 µM; in the experiment with HCT-15 colon, more than 100 µM; in the experiment with CCRF-CEM leukemia, 22.8 µM.
With `O=S(=O)(O)c1ccc2c(N=Nc3ccccc3Cl)c(O)ccc2c1`, the TGI in the experiment on SK-OV-3 ovarian, in the experiment with RPMI-8226 leukemia, in the experiment with MDA-N, with SK-MEL-28 melanoma, with SW-620 colon and in the experiment with A549 NSCLC was more than 100 µM each time. The TGI in the experiment on SK-MEL-2 melanoma, in the experiment with HCT-15 colon and in the experiment with CCRF-CEM leukemia was more than 100 µM throughout.
Regarding `COC(=O)c1cc2c3c(cc(O)c2[nH]1)N(C(=O)C1Cc2cc(OC)c(OC)c(OC)c2N1)CC3CCl` (stereo not drawn), the GI50 in the experiment with SK-OV-3 ovarian, in the experiment on RPMI-8226 leukemia, in the experiment with SK-MEL-28 melanoma, in the experiment with HL-60(TB) leukemia, in the experiment with SW-620 colon and with A549 NSCLC was less than 0.01 µM throughout. For the same molecule, the GI50 in the experiment with SK-MEL-2 melanoma, with HCT-15 colon and in the experiment on CCRF-CEM leukemia was less than 0.01 µM in each case. The TGI in the experiment on SK-OV-3 ovarian is less than 0.01 µM; in the experiment on RPMI-8226 leukemia it was less than 0.01 µM; with SK-MEL-28 melanoma, less than 0.01 µM; in the experiment on HL-60(TB) leukemia, 0.0102 µM; in the experiment on SW-620 colon, 0.132 µM; in the experiment on A549 NSCLC it was 1.36 µM. The figures for the TGI in the experiment on SK-MEL-2 melanoma, with HCT-15 colon and in the experiment with CCRF-CEM leukemia were less than 0.01 µM, 10.4 µM and more than 100 µM, respectively.
Turning to `CC(=O)N1N=C(N)CC1=O`, the TGI in the experiment with SK-OV-3 ovarian, in the experiment with MDA-N, with SK-MEL-28 melanoma, in the experiment on HL-60(TB) leukemia, with SW-620 colon and in the experiment with A549 NSCLC was more than 100 µM each time. Moreover, the TGI with SK-MEL-2 melanoma, in the experiment on HCT-15 colon and with CCRF-CEM leukemia was more than 100 µM each time.
As to `CC(C)CC1[C@@H](OCc2ccccc2)COS(=O)(=O)N1Cc1ccccc1` (stereo partly drawn), the TGI with SK-OV-3 ovarian, with RPMI-8226 leukemia, in the experiment with SK-MEL-28 melanoma, in the experiment with HL-60(TB) leukemia, in the experiment on SW-620 colon and with A549 NSCLC was more than 100 µM each time. Also, the TGI in the experiment on SK-MEL-2 melanoma, in the experiment on HCT-15 colon and in the experiment on CCRF-CEM leukemia was more than 100 µM each time.
Turning to `CCOC(=O)COc1c(OC)cc(C2C3=C(COC3=O)Oc3cc4c(cc32)OCO4)cc1OC` (stereo not drawn), the TGI in the experiment with SK-OV-3 ovarian is more than 57.5 µM; with RPMI-8226 leukemia, 0.954 µM; in the experiment with HL-60(TB) leukemia, 0.539 µM; in the experiment with SW-620 colon, more than 65.9 µM; in the experiment on A549 NSCLC, more than 100 µM; in the experiment on SK-MEL-2 melanoma, more than 100 µM. The figures for the TGI in the experiment on HCT-15 colon and in the experiment on CCRF-CEM leukemia were more than 100 µM and 0.965 µM, respectively.
With `COc1ccc(N=C2C(=Nc3ccc(OC)cc3)N(S(=O)(=O)c3ccccc3)C(=S)N2c2ccc(OC)cc2)cc1`, the TGI in the experiment with SK-OV-3 ovarian, with RPMI-8226 leukemia, in the experiment with MDA-N, in the experiment with SK-MEL-28 melanoma, in the experiment with SW-620 colon and in the experiment on A549 NSCLC was more than 100 µM in each case. The TGI in the experiment on SK-MEL-2 melanoma and in the experiment with HCT-15 colon was more than 100 µM in each case.

For the origin of these results see PubChem BioAssay (NCI).
